Test results from patent publication US8492515B2 (priority 2008, dated 2013).
Bridge positions count the residues as written; N and C are the ends. Square brackets hold non-standard residues; d marks the D form. Ends that are not written are not given here. I, II: the chains in the order shown. Ac6c = NC1(C(=O)O)CCCCC1; Dab = NCC[C@H](N)C(=O)O

What was measured:
in vitro [1] = format: in vitro ADME, mouse
Method: The stability of peptide A3-APO was analyzed in commercially available pooled mouse serum diluted to 25% with distilled water as follows. It has been shown that dilution of serum linearly reduces the degradation rate of peptides without changing any other proteolytic parameters (Powell et al., 1992. J. Pharm. Sci. 81: 731-735). […] Specifically, ninety μL of pooled sterile mouse serum (Equitech-Bio, Kerrville, Tex.) was added to 10 μL of peptide A3-APO dissolved in distilled water at 1.28 mg/mL concentration. After incubation periods of 0, 15, 30, 60 or 90, 120 and 240 min at 37° C., 20 μL 15% trichloracetic acid (TCA) was added, the mixture stored at 4° C. for 20 minutes, and centrifuged at 13,000 rpm. The supernatant was submitted to determination of remaining amount of unmodified A3-APO peptide by MS and RP-HPLC.

in vitro [2] = format: in vitro ADME; settings: mouse, serum
Method: The metabolic stability of peptide A3-APO in full serum in vitro was examined in peptide degredation studies in blood derived media. A3-APO was added to undiluted mouse serum preparation and was incubated in the full serum for 30 minutes. The serum proteins were precipitated and the serum was submitted for mass spectroscopic analysis.

E. coli HK179 [3] = settings: HK179, 16 h
From the text: (§1) To investigate the activity of the A3-APO metabolites, Chex1-Arg20 single chain unit and an Arg7-Arg20 common cleavage fragment were synthesized and studied for their ability to kill Enterobacteriaceae strains in undiluted Muller-Hinton broth, a true measure of potential clinical viability (Otvos et al., 2005. J. Med. Chem. 48: 5349-5359). The peptides of the invention were made on a CEM Liberty automated synthesizer with standard Fmoc-chemistry. The peptides were detached from the resin with the carboxyl terminus of the C-terminal Arg residue being in the form of an amino amide, —C(O)—NH2 (“Chex1-Arg20-NH2” and “Arg7-Arg20-NH2”), while still in the microwave chamber, and were purified by RP-HPLC. […] The biological studies carried out on chemically synthesized peptides in this example and succeeding examples were carried out on the C-terminal modified versions of the peptides wherein the C-terminal carboxylic acid function was in the form of an amide, —C(O)—NH2. Antibacterial growth inhibition assays were performed using sterile 96-well polypropylene plates (Nunc F96 microtiter plates) in a final volume of 100 μL as described previously (Cudic et al., 2002. Peptides 23: 271-283). The cell concentrations were estimated by measuring the ultraviolet absorbance at 600 nm and applying the formula cfu/mL=A600(3.8×10^8), where cfu is the number of colony-forming units. Briefly, 50 μL of a suspension of midlogarithmic phase bacterial cultures diluted to 5×10^5 cfu/mL in Muller-Hinton broth (MHB) was added to 50 μL of serially diluted peptides also dissolved in MHB. The final peptide concentration was 128 μg/mL. Cultures were then incubated at 37° C., 5% CO2 for 16-20 h without shaking, and growth inhibition was measured by recording the absorbance at 600 nm using a microplate reader. […] The minimal inhibitory concentration indicates the lowest peptide dose where no visible bacterial growth is detected after 16 hours incubation in full strength Muller-Hinton broth at 37° C. The peptide Chex-pyrr-Dap dimer was also included in the study. […] (Cudic et al., 2002. Peptides 23: 271-283).

E. coli SEQ102 [4] = settings: SEQ102, 16 h
From the text: as §1

K. pneumoniae HK123 = settings: HK123, 16 h
From the text: as §1

S. typhimurium G10215 [5] = settings: G10215, 16 h
From the text: as §1

[6] = tested on: A. baumannii ATCC BBA-1605
From the text: as §1
(§2) Following the protocol of Example 2, minimal inhibitory concentrations of the Chex1-Arg20 peptide against selected bacteria was determined. […] A3-APO was included for comparison.

E. coli 045-849 = tested on: E. coli 045-849
From the text: as §1, §2

E. coli 5770 = tested on: E. coli 5770
From the text: as §1, §2

E. coli HK131 = tested on: E. coli HK131
From the text: as §1, §2

E. coli HK179 [7] = tested on: E. coli HK179
From the text: as §1, §2

E. coli SEQ102 [8] = tested on: E. coli SEQ102
From the text: as §1, §2

E. coli SOTE40 = tested on: E. coli SOTE40
From the text: as §1, §2

K. pneumoniae 012-3132 = tested on: K. pneumoniae 012-3132
From the text: as §1, §2

K. pneumoniae HK 123 = tested on: K. pneumoniae HK 123
From the text: as §1, §2

K. pneumoniae HK 127 = tested on: K. pneumoniae HK 127
From the text: as §1, §2

K. pneumoniae HK 186 = tested on: K. pneumoniae HK 186
From the text: as §1, §2

K. pneumoniae K6 = tested on: K. pneumoniae K6
From the text: as §1, §2

P. aeruginosa 10 = tested on: P. aeruginosa 10
From the text: as §1, §2

P. aeruginosa ATCC 39329 = tested on: P. aeruginosa ATCC 39329
From the text: as §1, §2

[9] = tested on: S. saprophyticus ATCC 15305
From the text: as §1, §2

[10] = tested on: S. typhimurium ATCC 14028
From the text: as §1, §2

S. typhimurium G10215 [11] = tested on: S. typhimurium G10215
From the text: as §1, §2

S. typhimurium S5 = tested on: S. typhimurium S5
From the text: as §1, §2

I: [Ac6c]RPDKPRPYLPRPRPPRPVR[Dab] / II: [Ac6c]RPDKPRPYLPRPRPPRPVR (amide I:21-II:C (inferred)) [Peptide A3-APO, reference compound]
half-life at 0.128 mg/mL (in vitro [1]; 25% pooled mouse serum, 37° C.): ~3.83 h | original peptide amount remaining intact within the first hour (in vitro [1]; serum): almost half | metabolised at 0.5 h (in vitro [2]): ~35% | MIC against E. coli HK179 (E. coli HK179 [3]): 8 µg/mL | MIC against E. coli SEQ102 (E. coli SEQ102 [4]): 16 µg/mL | MIC against K. pneumoniae HK123 (K. pneumoniae HK123): 16 µg/mL | MIC against S. typhimurium G10215 (S. typhimurium G10215 [5]): 16 µg/mL | MIC, A. baumannii ATCC BBA-1605 [6]: 16 µg/mL | MIC, E. coli 045-849 (E. coli 045-849): 4 µg/mL | MIC, E. coli 5770 (E. coli 5770): 2 µg/mL | MIC, E. coli HK131 (E. coli HK131): 4 µg/mL | MIC, E. coli HK179 (E. coli HK179 [7]): 2 µg/mL | MIC, E. coli SEQ102 (E. coli SEQ102 [8]): 2 µg/mL | MIC, E. coli SOTE40 (E. coli SOTE40): 8 µg/mL | MIC, K. pneumoniae 012-3132 (K. pneumoniae 012-3132): 2 µg/mL | MIC, K. pneumoniae HK 123 (K. pneumoniae HK 123): 4 µg/mL | MIC, K. pneumoniae HK 127 (K. pneumoniae HK 127): 8 µg/mL | MIC, K. pneumoniae HK 186 (K. pneumoniae HK 186): 8 µg/mL | MIC, K. pneumoniae K6 (K. pneumoniae K6): 4 µg/mL | MIC, P. aeruginosa 10 (P. aeruginosa 10): 8 µg/mL | MIC, P. aeruginosa ATCC 39329 (P. aeruginosa ATCC 39329): 8 µg/mL | MIC, S. saprophyticus ATCC 15305 [9]: 2 µg/mL | MIC, S. typhimurium ATCC 14028 [10]: 8 µg/mL | MIC, S. typhimurium G10215 (S. typhimurium G10215 [11]): 4 µg/mL | MIC, S. typhimurium S5 (S. typhimurium S5): 8 µg/mL
